According to patent publication US11959083B2, “Immunosuppression-reverting oligonucleotides inhibiting the expression of CD39” (Secarna Pharmaceuticals GmbH & Co. KG, priority 2016, dated 2024):
l = locked nucleic acid (LNA); d = 2'-deoxy (DNA)

How the values were obtained:
Assay type in all cases: cell-based, human
hCD39 mRNA [1] = assay: hCD39 mRNA knockdown efficacy screen in A-172 cells (single dose, gymnotic delivery, QuantiGene Singleplex); details: 10 μM, 3 days, normalized to HPRT1; for Mean hCD39 mRNA expression (relative to untreated cells set as 1): first screening round; for Relative hCD39 mRNA expression (compared to non-treated cells): second screening round
Method: (§1) FIGS. 2A to 2D depict hCD39 mRNA knockdown efficacy of hCD39 antisense oligonucleotides in human cancer cell lines HDLM-2 (human Hodgkin Lymphoma) in a first and second screening round (FIGS. 2A-1 and 2A-2) and 2B-1 and 2B-2 and A-172 (human glioblastoma) in a first and second screening round (FIGS. 2C-1 and 2C-2) and 2D-1 and 2D-2. HDLM-2 and A-172 cells were treated for 3 days with 10 μM of the respective antisense oligonucleotide. As negative control, cells were treated with neg1, an antisense oligonucleotide having the sequence CGTTTAGGCTATGTACTT (SEQ ID NO:99) (described in WO2014154843 A1). Residual hCD39 mRNA expression relative to untreated cells is depicted. Expression values were normalized to expression of the housekeeping gene HPRT1. Depicted is the mean of triplicate wells+/−SD.
(§2) FIGS. 6A-6B depicts a third screening round where further antisense oligonucleotides were designed. These antisense oligonucleotides were based on efficient antisense oligonucleotides from the first and second screening round. Therefore, hCD39 antisense oligonucleotides were tested in human cancer cell lines HDLM-2 (human Hodgkin's lymphoma) (FIG. 6A) and A-172 (human glioblastoma) (FIG. 6B). HDLM-2 and A-172 cells were treated for 3 days with 10 μM of the respective antisense oligonucleotide. […] Residual hCD39 mRNA expression relative to untreated cells (set as 1) is depicted.
(§3) In order to analyze the efficacy of hCD39 antisense oligonucleotides of the present invention with regard to the knockdown of hCD39 mRNA expression in cancer cell lines, HDLM-2 (human Hodgkin Lymphoma, DSMZ) and A-172 (human glioblastoma, ATCC) cells were treated with a single dose (concentration: 10 μM without addition of any transfection reagent; this process is called gymnotic delivery) of the respective antisense oligonucleotide as shown in FIG. 2A to 2D. hCD39 and HPRT1 mRNA expression was analyzed three days later using the QuantiGene Singleplex assay (Affymetrix) and hCD39 expression values were normalized to HPRT1 values. […] Values of the mean normalized mRNA expression of hCD39 compared to non-treated cells are listed for A-172 (Table 4 for first screening round and Table 5 for second screening round) and HDLM-2 cells (Table 6 for first screening round and Table 7 for second screening round) in the following:
(§4) For a third screening round, new antisense oligonucleotides were designed. These antisense oligonucleotides were based on efficient antisense oligonucleotides from the first screening round with modifications in length, exact position on mRNA and chemical modification pattern. Therefore, hCD39 antisense oligonucleotides were tested in human cancer cell lines (FIG. 6A, Table 10) HDLM-2 (human Hodgkin's lymphoma) and (FIG. 6B, Table 11) A-172 (human glioblastoma). HDLM-2 and A-172 cells were treated for 3 days with 10 μM of the respective antisense oligonucleotide. […] Residual hCD39 mRNA expression relative to untreated cells (set as 1) is depicted.

hCD39 mRNA [2] = assay: IC50 determination / concentration-dependent hCD39 mRNA knockdown in HDLM-2 cells; details: for mRNA inhibition: HDLM-2, 3 days, Table 9
Method: HDLM-2 cells were treated for 3 days with the indicated concentration of the respective antisense oligonucleotide. Residual hCD39 expression is depicted compared to untreated control cells. hCD39 mRNA expression values were normalized to expression of the housekeeping gene HPRT1.
The antisense oligonucleotide A04040H (SEQ ID No. 3) that had shown potent activity in the first and second screening round was used as reference. HDLM-2 cells treated for 3 days with the indicated concentrations of the respective antisense oligonucleotide. hCD39 mRNA expression values were normalized to expression of the housekeeping gene HPRT1. Residual hCD39 mRNA expression relative to untreated cells (set as 100) is depicted. Depicted is the mean of triplicate wells+/−SD.
In a second experiment the concentration-dependency of effects and the IC50 values of hCD39 antisense oligonucleotides A04010H (SEQ ID No.14), A04016H (SEQ ID No.20), A04017H (SEQ ID No.21), A04020H (SEQ ID No. 24) and A04026H (SEQ ID No.30) were tested. […] HDLM-2 cells were treated with titrated amounts of the respective antisense oligonucleotide (concentrations: 10 μM, 3.3 μM, 1.1 μM, 370 nM, 120 nM, 41 nM, 14 nM, 4.5 nM). hCD39 mRNA expression was analyzed after three days of treatment. FIG. 5 and Table 9 depicts the concentration-dependent reduction of hCD39 mRNA expression by the selected hCD39 antisense oligonucleotides.
The hCD39 antisense oligonucleotides A04051H (SEQ ID No.88), A04052H (SEQ ID No.89), A04053H ([…]), A04056H (SEQ ID No.92), A04059H (SEQ ID No.94), A04060H (SEQ ID No.95), and A04061H (SEQ ID No.96) had shown potent single-dose activity in both HDLM-2 and A-172 cells. […] The antisense oligonucleotide A04040H that had shown potent activity in the first screening round was used as reference. hCD39 mRNA expression was analyzed after 3 days of treatment. FIG. 7 depicts the concentration-dependent reduction of hCD39 expression by hCD39 antisense oligonucleotides.

hCD39 mRNA [3] = assay: hCD39 mRNA knockdown efficacy screen in HDLM-2 cells (single dose, gymnotic delivery, QuantiGene Singleplex); design: key to Relative hCD39 mRNA expression (compared to non-treated cells): *: values are below detection limit; details: 10 μM, 3 days; for Mean hCD39 mRNA expression normalized to HPRT1 relative to untreated control = 1: first screening round; for Relative hCD39 mRNA expression (compared to non-treated cells): second screening round, normalized to HPRT1
Method: as §1, §2, §3, §4

Row | Substance | Mean hCD39 mRNA expression (relative to untreated cells set as 1) (hCD39 mRNA [1]) | Relative hCD39 mRNA expression (compared to non-treated cells) (hCD39 mRNA [1]) | Mean hCD39 mRNA expression normalized to HPRT1 relative to untreated control = 1 (hCD39 mRNA [3]) | Relative hCD39 mRNA expression (compared to non-treated cells) (hCD39 mRNA [3]) | further results
1 | +T*+A*+T*G*G*T*A*C*A*G*T*+T*G*+G*+T (antisense TATGGTACAGTTGGT; sugars from the 5' end l3 d8 l1 d1 l2, all phosphorothioate, methylation of C not given here) [A04020H] | 0.03 | 0.04 | 0.08 | 0.08 | mRNA inhibition (hCD39 mRNA [2]; 0.0045 μM): 23.58%; mRNA inhibition (hCD39 mRNA [2]; 0.013 μM): 68.27%; mRNA inhibition (hCD39 mRNA [2]; 0.04 μM): 94.26%; mRNA inhibition (hCD39 mRNA [2]; 0.12 μM): 98.89%; mRNA inhibition (hCD39 mRNA [2]; 0.4 μM): 99.42%; mRNA inhibition (hCD39 mRNA [2]; 1.1 μM): 99.61%; mRNA inhibition (hCD39 mRNA [2]; 3.3 μM): 99.55%; mRNA inhibition (hCD39 mRNA [2]; 10 μM): 99.41%; IC50 (hCD39 mRNA [2]; HDLM-2 cells, hCD39 mRNA, 3 days, second screening round (Table 9)): 10.1 nM
2 | +T*+G*+A*T*A*G*C*C*T*T*G*C*+A*+G*+A (antisense TGATAGCCTTGCAGA; sugars from the 5' end l3 d9 l3, all phosphorothioate, methylation of C not given here) [A04014H] | 0.27 | 0.27 | 0.17 | 0.17 | 
3 | +A*+A*+T*C*C*C*C*C*T*G*G*A*+G*+T*+G (antisense AATCCCCCTGGAGTG; sugars from the 5' end l3 d9 l3, all phosphorothioate, methylation of C not given here) [A04011H] |  | 0.69 | 0.29 | 0.30 | 
4 | +C*T*+T*G*C*C*A*T*A*G*A*G*G*C*+G*A*+A (antisense CTTGCCATAGAGGCGAA; sugars from the 5' end ldldddddddddddldl, all phosphorothioate, methylation of C not given here) [A04041H] | 0.46 | 0.24 | 0.18 | * | 
5 | +G*+G*+C*G*A*A*A*T*T*G*C*+A*+G*+A (antisense GGCGAAATTGCAGA; sugars from the 5' end l3 d8 l3, all phosphorothioate, methylation of C not given here) [A04001H] | 0.58 | 0.58 | 0.25 | 0.25 | 
6 | +A*+C*+T*A*T*G*C*T*G*A*A*C*C*A*+C*+C (antisense ACTATGCTGAACCACC; sugars from the 5' end l3 d11 l2, all phosphorothioate, methylation of C not given here) [A04022H] | 0.14 | 0.15 | 0.09 | 0.09 | 
7 | +A*+C*+T*C*C*A*C*A*C*T*A*A*T*+G*+C*+T (antisense ACTCCACACTAATGCT; sugars from the 5' end l3 d10 l3, all phosphorothioate, methylation of C not given here) [A04037H] | 0.17 | 0.09 | 0.12 | 0.10 | 
8 | +T*+A*G*A*C*A*T*T*G*T*A*G*+T*+C*+C (antisense TAGACATTGTAGTCC; sugars from the 5' end l2 d10 l3, all phosphorothioate, methylation of C not given here) [A04009H] | 0.28 | 0.29 | 0.15 | 0.15 | 
9 | +C*+C*+C*T*C*T*C*A*C*T*A*A*A*+T*+T*+A (antisense CCCTCTCACTAAATTA; sugars from the 5' end l3 d10 l3, all phosphorothioate, methylation of C not given here) [A04036H] | 0.55 | 0.28 | 0.26 | 0.01 | 
10 | +A*+C*+G*T*T*C*A*C*T*A*C*C*T*T*+C*+T*+T (antisense ACGTTCACTACCTTCTT; sugars from the 5' end l3 d11 l3, all phosphorothioate, methylation of C not given here) [A04043H] | 0.21 | 0.11 | 0.04 | * | 
11 | +G*+C*+C*C*C*A*A*A*A*T*C*C*C*C*+C*+T*+G (antisense GCCCCAAAATCCCCCTG; sugars from the 5' end l3 d11 l3, all phosphorothioate, methylation of C not given here) [A04047H] |  | 0.43 |  | * | 
